In US10457685B2, “[1,2,3]triazolo[4,5-D]pyrimidine derivatives with affinity for the type-2 cannabinoid receptor” (Hoffmann-La Roche Inc., priority 2016, dated 2019):

Key:
[1] = target: human CB2 receptor (CNR2) (Homo sapiens (Human), UniProt P34972); experiment: Radioligand binding assay ([3H]-CP-55,940), membranes of HEK cells expressing human CNR2; details: 2.6 nM [3H]-CP-55,940, HEK cell membranes, 1 h at 30° C.
Protocol: (§1) Radioligand Binding Assay
(§2) The affinity of the compounds of the invention for cannabinoid receptors was determined using recommended amounts of membrane preparations (PerkinElmer) of human embryonic kidney (HEK) cells expressing the human CNR1 or CNR2 receptors in conjunction with 1.5 or 2.6 nM [3H]-CP-55,940 (Perkin Elmer) as radioligand, respectively. Binding was performed in binding buffer (50 mM Tris, 5 mM MgCl2, 2.5 mM EDTA, and 0.5% (wt/vol) fatty acid free BSA, pH 7.4 for CB1 receptor and 50 mM Tris, 5 mM MgCl2, 2.5 mM EGTA, and 0.1% (wt/vol) fatty acid free BSA, pH 7.4 for CB2 receptor) in a total volume of 0.2 mL for 1 h at 30° C. shaking. The reaction was terminated by rapid filtration through microfiltration plates coated with 0.5% polyethylenimine (UniFilter GF/B filter plate; Packard). Bound radioactivity was analyzed for Ki using nonlinear regression analysis (Activity Base, ID Business Solution, Limited), with the Kd values for [^3H]CP55,940 determined from saturation experiments.

[2] = target: human CB1 receptor (CNR1) (Homo sapiens (Human), UniProt P21554); experiment: Radioligand binding assay ([3H]-CP-55,940), membranes of HEK cells expressing human CNR1; details: 1.5 nM [3H]-CP-55,940, HEK cell membranes, 1 h at 30° C.
Protocol: as §1, §2

Sequence of human CB2 receptor (CNR2) (P34972 whole entry): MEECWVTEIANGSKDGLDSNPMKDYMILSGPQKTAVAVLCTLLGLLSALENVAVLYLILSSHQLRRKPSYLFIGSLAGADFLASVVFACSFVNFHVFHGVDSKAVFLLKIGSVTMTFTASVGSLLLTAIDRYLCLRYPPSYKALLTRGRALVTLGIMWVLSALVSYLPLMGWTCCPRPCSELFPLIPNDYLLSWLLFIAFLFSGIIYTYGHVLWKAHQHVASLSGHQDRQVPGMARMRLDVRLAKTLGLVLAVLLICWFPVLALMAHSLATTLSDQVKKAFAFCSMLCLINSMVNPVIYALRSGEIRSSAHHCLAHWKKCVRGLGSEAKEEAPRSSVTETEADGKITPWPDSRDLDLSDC
Sequence of human CB1 receptor (CNR1) (P21554 whole entry): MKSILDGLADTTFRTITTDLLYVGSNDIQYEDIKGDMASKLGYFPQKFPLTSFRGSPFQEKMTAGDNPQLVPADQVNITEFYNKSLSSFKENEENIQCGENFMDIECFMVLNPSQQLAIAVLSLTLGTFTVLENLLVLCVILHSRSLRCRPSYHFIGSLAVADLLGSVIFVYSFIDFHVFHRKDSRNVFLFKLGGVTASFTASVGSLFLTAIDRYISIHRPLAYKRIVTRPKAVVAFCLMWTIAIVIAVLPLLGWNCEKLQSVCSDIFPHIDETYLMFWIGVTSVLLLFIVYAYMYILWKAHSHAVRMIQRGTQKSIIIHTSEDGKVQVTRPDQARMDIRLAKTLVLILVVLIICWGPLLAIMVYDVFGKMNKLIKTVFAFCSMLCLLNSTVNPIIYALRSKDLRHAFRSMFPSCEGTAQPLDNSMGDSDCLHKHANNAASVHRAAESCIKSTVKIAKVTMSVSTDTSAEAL

Compound	Ki [1] [nM]	Ki [2] [nM]
NCCSSCCc1ccccc1Cn1nnc2c(N3CCC(F)(F)C3)nc(C(F)(F)c3ccccc3)nc21 [Example 34, 2-[2-[2-[[5-[Difluoro(phenyl)methyl]-7-(3,3-difluoropyrrolidin-1-yl)triazolo[4,5-d]pyrimidin-3-yl]methyl]phenyl]ethyldisulfanyl]ethanamine]	177	230
CC(C)(C)c1nc(N2CC[C@H](O)C2)c2nnn(Cc3ccccc3S(=O)(=O)F)c2n1 [Example 1, 2-[[5-tert-Butyl-7-[(3S)-3-hydroxypyrrolidin-1-yl]triazolo[4,5-d]pyrimidin-3-yl]methyl]benzenesulfonyl fluoride]	16	> 10000
CC(C)(C)c1nc(N2CCC(F)(F)C2)c2nnn(Cc3ccccc3SSCCO)c2n1 [Example 36, 2-[[2-[[5-tert-Butyl-7-(3,3-difluoropyrrolidin-1-yl)triazolo[4,5-d]pyrimidin-3-yl]methyl]phenyl]disulfanyl]ethanol]	95	560
CC(C)(C)c1nc(N2CCC(F)(F)C2)c2nnn(Cc3ccccc3CCSSCCN)c2n1 [Example 33, 2-[2-[2-[[5-tert-Butyl-7-(3,3-difluoropyrrolidin-1-yl)triazolo[4,5-d]pyrimidin-3-yl]methyl]phenyl]ethyldisulfanyl]ethanamine]	63	588
CC(C)(C)c1nc(N2CC[C@H](S)C2)c2nnn(Cc3ccccc3Cl)c2n1 (single isomer, unassigned) [Example 12]	2500	2810
Cc1nonc1Cn1nnc2c(N3CCC(N=C=S)C3)nc(C(F)(F)c3ccccc3)nc21 (stereo not drawn) [Example 23, 5-[Difluoro(phenyl)methyl]-7-(3-isothiocyanatopyrrolidin-1-yl)-3-[(4-methyl-1,2,5-oxadiazol-3-yl)methyl]-3H-[1,2,3]triazolo[4,5-d]pyrimidine]	1460	1450
Cc1nonc1Cn1nnc2c(N3CCC(N=[N+]=[N-])C3)nc(C(F)(F)c3ccccc3)nc21 (stereo not drawn) [Example 20, 7-(3-Azidopyrrolidin-1-yl)-5-[difluoro(phenyl)methyl]-3-[(4-methyl-1,2,5-oxadiazol-3-yl)methyl]-3H-[1,2,3]triazolo[4,5-d]pyrimidine]	1300	> 10000
CC(C)(C)c1nc(N2CC[C@H](O)C2)c2nnn(Cc3ccccc3CN=C=S)c2n1 [Example 5, (3S)-1-(5-tert-Butyl-3-{[2-(isothiocyanatomethyl)phenyl]methyl}-3H-[1,2,3]triazolo[4,5-d]pyrimidin-7-yl)pyrrolidin-3-ol]	91	> 10000
CC(C)(C)c1nc(N2CCC(F)(F)C2)c2nnn(Cc3ccccc3CCSSCC(O)CO)c2n1 (stereo not drawn) [Example 35, 3-[2-[2-[[5-tert-Butyl-7-(3,3-difluoropyrrolidin-1-yl)triazolo[4,5-d]pyrimidin-3-yl]methyl]phenyl]ethyldisulfanyl]propane-1,2-diol]	5	135
5-tert-butyl-7-(3,3-Difluoropyrrolidin-1-yl)-3-[[2-(pyridin-2-yldisulfanyl)phenyl]methyl]triazolo[4,5-d]pyrimidine [Example 37]	541	2580
CC(C)(C)c1nc(N2CCC(F)(F)C2)c2nnn(Cc3ccccc3N=C=S)c2n1 [Example 6, 5-tert-Butyl-7-(3,3-difluoropyrrolidin-1-yl)-3-[(2-isothiocyanatophenyl)methyl]-3H-[1,2,3]triazolo[4,5-d]pyrimidine]	300	5360
Cc1nonc1Cn1nnc2c(N3CC[C@H](S)C3)nc(C(C)(C)C)nc21 (single isomer, unassigned) [Example 10]	153	> 10000
O=S(=O)(F)c1ccccc1Cn1nnc2c(N3CC[C@H](O)C3)nc(C(F)(F)c3ccccc3)nc21 [Example 24, 2-[[5-[Difluoro(phenyl)methyl]-7-[(3S)-3-hydroxypyrrolidin-1-yl]triazolo[4,5-d]pyrimidin-3-yl]methyl]benzenesulfonyl fluoride]	1130	3290
FC1(F)CCN(c2nc(C(F)(F)c3ccccc3)nc3c2nnn3Cc2ccccc2CCSSc2ccccn2)C1 [Example 27, 5-[Difluoro(phenyl)methyl]-7-(3,3-difluoropyrrolidin-1-yl)-3-[[2-[2-(pyridin-2-yldisulfanyl)ethyl]phenyl]methyl]triazolo[4,5-d]pyrimidine]	262	3040
CC(C)(C)c1nc(N2CC[C@@H](S)C2)c2nnn(Cc3ccccc3Cl)c2n1 (single isomer, unassigned) [Example 13]	1560	> 10000
